In patent US20220265656A1, “COMBINATION THERAPIES WITH IRE1 SMALL MOLECULE INHIBITORS” (Cornell University, priority 2019, published 2022):

What was measured:
[1] = system: IRE1a-dependent XBP1 splicing; test: Inhibition of IRE1a-dependent XBP1 splicing in ovarian cancer cells in vivo; parameters: species or system mouse; conditions: mice with metastatic ovarian cancer, single oral dose 45 mg/kg, 24 hours
Procedure: Mice (n=3) with established metastatic ovarian cancer were orally gavaged with 45 mg/kg vehicle control or inhibitor dissolved in H2O. The inhibitor was Compound C. Compound C is 2-chloro-N-(5-(2-(((1r,4r)-4-(dimethylamino)cyclohexyl)amino)-8-ethylquinazolin-6-yl)-6-methylpyridin-2-yl)benzenesulfonamide, Compound 91, described herein. After 24 hours, mice were euthanized, ascites-resident cells were extracted and tumor cells, dendritic cells (DCs), and CD4+ T cells were isolated by FACS. The samples were used for subsequent RT-qPCR analysis of beta-actin, XBP1s and total XBP1. Gene expression was evaluated by quantitative PCR for XBP1s and total XBP1 transcripts using the 2^(−ΔCT) method for calculating normalized gene expression. Gene expression levels were normalized to Actb transcripts. XBP1 splicing is calculated as XBP1s expression divided by total XBP1 expression. A single oral dose of Compound C suppressed IRE1a-dependent XBP1 splicing in tumor cells and relevant immune cells in vivo over 24 hours, FIG. 7.
Mice (n=3) with established metastatic ovarian cancer were orally gavaged with 45 mg/kg vehicle control or inhibitor dissolved in H2O. […] Gene expression was evaluated by quantitative PCR for XBP1s and total XBP1 transcripts using the 2^(−ΔCT) method for calculating normalized gene expression. […] XBP1 splicing is calculated as XBP1s expression divided by total XBP1 expression. […]

[2] = system: IRE1a-mediated XBP1 splicing; test: Target engagement in pancreas and salivary gland (XBP1 splicing RT-qPCR); assay type: in vivo, mouse; conditions: mice, 30 mg/kg oral gavage, 6 hours, compared to control and Compound B
Procedure: Mice (n=3 per group) were orally gavaged with 30 mg/kg vehicle control or IRE1 inhibitors dissolved in H2O. After 6 hours, mice were euthanized and pancreas and salivary gland tissues were isolated, snap frozen on dry ice, and used for subsequent RT-qPCR analysis of beta-actin, XBP1s and total XBP1. Gene expression was evaluated by quantitative PCR for XBP1s and total XBP1 transcripts using the 2^(−ΔCT) method for calculating normalized gene expression. Gene expression levels were normalized to Actb transcripts. XBP1 splicing is calculated as XBP1s expression divided by total XBP1 expression.

[3] = Metabolic assays of N,N-dimethyl compounds; assay type: in vitro ADME; conditions: data not shown
[4] = system: MDA-MB-231 tumors; test: MDA-MB-231 human triple negative breast carcinoma xenograft in athymic nude mice; assay type: in vivo, mouse; conditions: MDA-MB-231 xenograft mice, 24 hours after first dose and at endpoint/Day 29
Procedure: Tumor Cell Culture and Implantation: MDA-MB-231 cells were grown to mid-log phase in RPMI 1640 medium containing 10% fetal bovine serum, 2 mM glutamine, 100 units/mL sodium penicillin G, 25 μg/mL gentamicin, and 100 μg/mL streptomycin sulfate. The tumor cells were cultured in tissue culture flasks in a humidified incubator at 37° C., in an atmosphere of 5% CO2 and 95% air. The cells were harvested during exponential growth and resuspended in cold phosphate buffered saline (PBS). Each test animal was injected subcutaneously in the right flank with 5×10^6 MDA-MB-231 cells in a 0.1 mL cell suspension. Tumor growth was monitored as the average tumor size approached the target range of 100 to 150 mm^3. Tumors were measured in two dimensions using calipers, and volume was calculated using the formula:
where w=width and l=length in mm of a MDA-MB-231 tumor. […]
Endpoint and Tumor Growth Inhibition (TGI) Analysis: Tumors were measured using calipers twice a week for the study duration. […] The study ended on Day 29 and data from this day was analyzed to determine the MTV (n), the median tumor volume for the number of animals, n, on the final day (Day 29) for each group. […] Percent tumor growth inhibition (% TGI) was defined as the difference between the MTV of the designated control group (Group 1) and the MTV of the drug-treated group, expressed as a percentage of the MTV of the control; group: […]

| exposure (plasma compound levels) [4] | SMILES | IRE1a-dependent XBP1 splicing in FACS-isolated ascites cells [1] | IRE1a-mediated XBP1 splicing in pancreas and salivary gland [2] | metabolism of N,N-dimethyl compounds [3] |
| --- | --- | --- | --- | --- |
| – | CCc1cc(-c2ccc(NS(=O)(=O)c3ccccc3Cl)nc2OC)cc2cnc(N[C@H]3CC[C@H](N(C)C)CC3)nc12 [Compound 99, 2-chloro-N-(5-(2-(((1r,4r)-4-(dimethylamino)cyclohexyl)amino)-8-ethylquinazolin-6-yl)-6-methoxypyridin-2-yl)benzenesulfonamide] | suppressed | potently suppressed | removal of the methyl groups |
| significantly higher with multi-dosing | COc1cc2c(C)c(CC(=O)N3CCOCC3)c(=O)oc2c(C=O)c1O [MKC-8866] | – | – | – |
